Assay results published in patent US11155740B2, “Shale hydration inhibitor and method of use” (M-I L.L.C., priority 2014, dated 2021).

Experiment: OECD 306 marine biodegradation
Text: In the following example, additive formulations were studied for biodegradability in order to quantify the suitability of the formulations for use in environmentally sensitive areas. One measure of sample toxicity is marine biodegradation data as outlined in Organization for Economic Cooperation and Development, Procedure OECD 306 or BODIS. Under OECD 306, the rules that governing offshore chemical use set forth three tests: bioaccumulation, biodegradation and toxicity. In order for a chemical to be used without restriction offshore in the North Sea it must satisfy two of the following three criteria: (1) biodegradation must be greater than 60%, if less than 20% it is automatically marked for substitution; (2) bioaccumulation as measured by octanol/water partitioning coefficient (log Po/w) must be below 3 (or have a molecular weight >700); and toxicity to the most sensitive marine species (often Skeletonema) must be greater than LC50 or EC50 of 10 ppm.
During the biodegradation testing, samples were formulated as show below in Table 4, where polyetheramine is a diamino-functionalized JEFFAMINE™.
Samples were then subjected to biodegradation and results were tabulated as shown below in Table 5. Comparative samples of sodium benzoate and ULTRAHIB™ PLUS, an amine-based shale inhibitor commercially available from M-I L.L.C., were also assayed.

O=C([O-])c1ccccc1.[Na+] [Sodium benzoate]
OECD 306 Biodegradation Day 7 (Day 7): 64%
OECD 306 Biodegradation Day 14 (Day 14): 71%
OECD 306 Biodegradation Day 21 (Day 21): 76%
OECD 306 Biodegradation Day 28 (Day 28): 78%
